In patent US20250221966A1, “RXFP1 AGONISTS” (BRISTOL-MYERS SQUIBB COMPANY, priority 2021, published 2025):

Biological target: T1, human RXFP1 (Homo sapiens, UniProt Q9HBX9)
T1 construct: expressed in transfected cells
T1 sequence (Q9HBX9 1-757): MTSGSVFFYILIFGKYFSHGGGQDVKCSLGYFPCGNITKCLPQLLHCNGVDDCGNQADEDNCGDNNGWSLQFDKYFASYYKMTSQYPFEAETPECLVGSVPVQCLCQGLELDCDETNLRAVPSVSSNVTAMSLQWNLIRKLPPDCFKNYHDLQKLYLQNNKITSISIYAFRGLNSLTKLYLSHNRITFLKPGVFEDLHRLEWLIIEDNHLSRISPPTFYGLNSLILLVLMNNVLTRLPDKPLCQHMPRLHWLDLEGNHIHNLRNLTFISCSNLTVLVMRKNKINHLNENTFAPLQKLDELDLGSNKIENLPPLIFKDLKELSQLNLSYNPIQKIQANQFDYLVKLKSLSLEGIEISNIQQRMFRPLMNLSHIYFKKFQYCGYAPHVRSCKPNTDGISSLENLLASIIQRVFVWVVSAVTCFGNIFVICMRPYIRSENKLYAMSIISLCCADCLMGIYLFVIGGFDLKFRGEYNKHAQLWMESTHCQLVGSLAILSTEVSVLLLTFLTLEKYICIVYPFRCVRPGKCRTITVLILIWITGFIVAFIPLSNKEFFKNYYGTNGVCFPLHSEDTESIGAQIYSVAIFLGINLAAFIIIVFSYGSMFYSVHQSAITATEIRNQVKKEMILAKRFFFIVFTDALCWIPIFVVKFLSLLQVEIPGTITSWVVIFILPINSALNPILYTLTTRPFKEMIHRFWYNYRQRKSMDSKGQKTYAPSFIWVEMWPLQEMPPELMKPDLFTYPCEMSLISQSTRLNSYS
Test: RXFP1 cAMP assay (hRXFP1 HEK293 cAMP assay, HTRF)
Assay type: cell-based
Settings: HEK293 cells stably expressing human RXFP1, 30 min at room temperature, read-out: cAMP hRXFP1 HEK293 Assay EC50
Procedure, shortened: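 HEK293 cells stably expressing human RXFP1 (1500 cells/well) in HBSS/20 mM HEPES/0.05% BSA/0.5 mM IBMX. Compounds were tested at 0.010 nM–50 μM final (2% DMSO) for 30 min at room temperature. cAMP was measured by HTRF and values derived by 4-parameter logistic fit.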

Work on COc1ccc(Br)cc1C(=O)N[C@@H]1C2CCC(/C2=C/c2ccccc2)[C@@H]1C(=O)Nc1ccc(F)c(C(F)(F)F)c1 (stereo partly shown) [Example 77] yielded an EC50 of 330 nM.

For COc1cc(F)c(F)cc1C(=O)N[C@@H]1C2CCC(/C2=C/c2ccccc2)[C@]1(F)C(=O)Nc1ccc(F)c(C(F)(F)F)c1 (stereo partly shown) [Example 53], the EC50 was 240 nM.

In the case of COc1ccc(C2=NO[C@H]3C[C@H](CO)C[C@@H]23)cc1C(=O)N[C@H]1[C@@H](C(=O)Nc2ccc(F)c(C(F)(F)F)c2)[C@H]2CC[C@@H]1/C2=C\C1C[C@@H](F)[C@@H](F)C1 (stereo partly shown) [compound 828], the EC50 is reported as 3.3 nM.

COCCNC(=O)c1ccc(-c2ccc(OC)c(C(=O)N[C@@H]3C4CCC(/C4=C/c4ccccc4)[C@@H]3C(=O)Nc3ccc(F)c(C(F)(F)F)c3)c2)c(F)c1 (stereo partly shown) [compound 197] was tested, and the EC50 was 51 nM.

COc1cc(F)c(F)cc1C(=O)N[C@@H]1C2CCC(/C2=C/C2=CCOC2)[C@@H]1C(=O)Nc1ccc(F)c(C(F)(F)F)c1 (stereo partly shown) [compound 58] was tested, and the EC50 was 1100 nM.

COc1ccc(C2=NOC3COCC23)cc1C(=O)N[C@H]1[C@@H](C(=O)NC2CCC(C#N)C2)[C@H]2CC[C@@H]1/C2=C\C1CC1 (stereo partly shown) [Example 664] gave an EC50 of 367 nM.

In the case of COc1ccc(-c2cc(C3=NOC4CC(O)CC34)ccc2F)cc1C(=O)N[C@H]1[C@@H](C(=O)Nc2ccc(F)c(C(F)(F)F)c2)[C@H]2CC[C@@H]1/C2=C\C1CC1 (stereo partly shown) [compound 908], the EC50 is reported as 3.5 nM.

Molecule COc1cc(F)c(F)cc1C(=O)N[C@@H]1C2CCC(C2Cc2ccccc2)[C@@H]1C(=O)Nc1ccc(F)c(C(F)(F)F)c1 (stereo partly shown) [compound 976] has an EC50 of 710 nM.

COc1ccc(-c2cc(C(COC(=O)Nc3ccccc3)C(F)(F)F)ccc2F)cc1C(=O)N[C@H]1[C@@H](C(=O)Nc2ccc(F)c(C(F)(F)F)c2)[C@H]2CC[C@@H]1/C2=C\C1CC1 (stereo partly shown) [compound 875] was tested, and the EC50 was 1.8 nM.

For CC(F)(F)COc1ccc(C2=NOC3COCC23)cc1C(=O)N[C@@H]1C2CCC(/C2=C/C2CC2)[C@@H]1C(=O)Nc1ccc(F)c(C(F)(F)F)c1 (stereo partly shown) [compound 790], the EC50 was 4.9 nM.

With CC/C=C1\C2CCC1[C@H](C(=O)Nc1ccc(F)c(C(F)(F)F)c1)[C@@H]2NC(=O)c1cc(-c2cc(C(=O)NC)ccc2F)ccc1OC (stereo partly shown) [compound 156] the EC50 was 11 nM.

For COc1cc(F)c(F)cc1C(=O)N[C@@H]1C2CCC(/C2=C/c2cccs2)[C@@H]1C(=O)Nc1ccc(F)c(C(F)(F)F)c1 (stereo partly shown) [compound 124], the EC50 was 210 nM.

Molecule COc1ccc(C2=NO[C@H]3C[C@H](CO)CN23)cc1C(=O)N[C@H]1[C@@H](C(=O)Nc2ccc(F)c(C(F)(F)F)c2)[C@H]2CC[C@@H]1/C2=C\CC(C)C [compound 838] has an EC50 of 4.4 nM.

COc1cc(F)c(F)cc1C(=O)N[C@@H]1C2CCC(/C2=C/c2cncnc2)[C@@H]1C(=O)Nc1ccc(F)c(C(F)(F)F)c1 (stereo partly shown) [compound 63] was tested, and the EC50 was 510 nM.

With COc1ccc(-c2cc(C(O)C(=O)O)ccc2F)cc1C(=O)N[C@@H]1C2CCC(/C2=C/C2CC2)[C@@H]1C(=O)Nc1ccc(F)c(C(F)(F)F)c1 (stereo partly shown) [compound 181] the EC50 was 6 nM.

With COc1ccc(C2=NOC3COCC23)c(F)c1C(=O)N[C@H]1[C@@H](C(=O)Nc2ccc(F)c(C(F)(F)F)c2)[C@H]2CC[C@@H]1/C2=C\C1CC1 (single isomer, unassigned) [compound 693] the EC50 was 791 nM.

With COC(=O)N1CCN(c2ccc(OC)c(C(=O)NC3C4CCC(C4=Cc4ccccc4)C3C(=O)Nc3ccc(F)c(C(F)(F)F)c3)c2)CC1 (stereo not shown) [Example 125] the EC50 was 240 nM.

For COc1ccc(-c2cnc3n2CC(O)CC3)cc1C(=O)N[C@H]1[C@@H](C(=O)Nc2ccc(F)c(C(F)(F)F)c2)[C@H]2CC[C@@H]1/C2=C\C1CC1 (stereo partly shown) [compound 752], the EC50 was 2.5 nM.

Work on COc1ccc(C2=NOC(C3(O)CCCCC3)C2)cc1C(=O)N[C@H]1[C@@H](C(=O)Nc2ccc(F)c(C(F)(F)F)c2)[C@H]2CC[C@@H]1/C2=C\C1CC1 (single isomer, unassigned) [compound 549] yielded an EC50 of 33 nM.

Molecule COc1ccc(-c2cc(C(NC(C)=O)C(=O)O)ccc2F)cc1C(=O)N[C@@H]1C2CCC(/C2=C/C2CC2)[C@@H]1C(=O)Nc1ccc(F)c(C(F)(F)F)c1 (stereo partly shown) [compound 184] has an EC50 of 11 nM.

COc1ccc(-c2cc([C@H](C)O)on2)cc1C(=O)N[C@H]1[C@@H](C(=O)Nc2ccc(F)c(C(F)(F)F)c2)[C@H]2CC[C@@H]1/C2=C\C1CC1 [compound 465] gave an EC50 of 3.5 nM.

Work on COc1cccc(/C=C2\C3CCC2[C@H](C(=O)Nc2ccc(F)c(C(F)(F)F)c2)[C@@H]3NC(=O)c2cc(F)c(F)cc2OC)c1 (stereo partly shown) [compound 19] yielded an EC50 of 720 nM.

CCCC/C=C1\C2CCC1[C@H](C(=O)Nc1ccc(F)c(C(F)(F)F)c1)[C@@H]2NC(=O)c1cc(C2=NOC(CO)C2)ccc1OC (stereo partly shown) [compound 383] showed an EC50 of 127 nM.

With COc1ccc(-c2cc(C(=O)O)ccc2F)cc1C(=O)N[C@@H]1C2CCC(/C2=C/C2CC2)[C@@H]1C(=O)NC(C)c1nccs1 (stereo partly shown) [compound 309] the EC50 was 4380 nM.

Work on COc1ccc(C2=NOC3CC(CO)CC23)cc1C(=O)N[C@H]1[C@@H](C(=O)Nc2ccc(F)c(C(F)(F)F)c2)[C@H]2CC[C@@H]1/C2=C\C(F)(F)F (stereo partly shown) [compound 533] yielded an EC50 of 23.4 nM.

In the case of COc1ccc(C2=NOC3COCC23)cc1C(=O)N[C@@H]1C2CCC(/C2=C/C2CC2)[C@@H]1C(=O)Nc1ccc(F)c(OC(F)(F)F)c1 (stereo partly shown) [compound 973], the EC50 is reported as 5.8 nM.

With COc1ccc(C2=NOC3COCC23)cc1C(=O)N[C@H]1[C@@H](C(=O)NC2CCCC2)[C@H]2CC[C@@H]1/C2=C\C1CC1 (stereo partly shown) [Example 565] the EC50 was 50.7 nM.

In the case of COc1ccc(C2CC3COCC32)cc1C(=O)N[C@H]1[C@@H](C(=O)Nc2ccc(F)c(C(F)(F)F)c2)[C@H]2CC[C@@H]1/C2=C\C1CC1 (single isomer, unassigned) [compound 729], the EC50 is reported as 82 nM.

Molecule CCOC(=O)C(NC(=O)C1CCOCC1)c1cnn(-c2ccc(OC)c(C(=O)N[C@@H]3C4CCC(/C4=C/C(F)(F)F)[C@@H]3C(=O)Nc3ccc(F)c(C(F)(F)F)c3)c2)c1 (stereo partly shown) [Example 346] has an EC50 of 169 nM.

For COc1ccc(-c2cc(C(=O)O)ccc2F)cc1C(=O)N[C@@H]1C2CCC(/C2=C/C2CC2)[C@@H]1C(=O)Oc1cccc(-c2nnnn2C)c1 (stereo partly shown) [compound 272], the EC50 was 3830 nM.

COc1ccc(-c2cc(C(NC(=O)C3CCOCC3)C(=O)O)ccc2F)cc1C(=O)N[C@H]1[C@@H](C(=O)Nc2ccc(F)c(C(F)(F)F)c2)[C@H]2CC[C@@H]1/C2=C\C(C)C (stereo partly shown) [compound 942] showed an EC50 of 1.3 nM.

COc1ccc(C2=NO[C@H]3CC(CO)C[C@@H]23)cc1C(=O)N[C@H]1[C@@H](C(=O)Nc2ccc(F)c(C(F)(F)F)c2)[C@H]2CC[C@@H]1/C2=C\CC(C)(C)C (stereo partly shown) [compound 841] showed an EC50 of 4.7 nM.

With COc1cc(F)c(F)cc1C(=O)N[C@@H]1C2CCC(/C2=C\Br)[C@@H]1C(=O)Nc1ccc(F)c(C(F)(F)F)c1 (stereo partly shown) [compound 10] the EC50 was 1100 nM.

COc1ccc(-c2cc(C(OC(=O)NC3CCC3)C(=O)O)ccc2F)cc1C(=O)N[C@H]1[C@@H](C(=O)Nc2ccc(F)c(C(F)(F)F)c2)[C@H]2CC[C@@H]1/C2=C\C(C)C (stereo partly shown) [compound 938] showed an EC50 of 1.7 nM.

Work on COc1ccc(C2=NO[C@H]3[C@@H]2[C@@H](O)C[C@H]3O)cc1C(=O)N[C@H]1[C@@H](C(=O)Nc2ccc(F)c(C(F)(F)F)c2)[C@H]2CC[C@@H]1/C2=C\C1CC1 (single isomer, unassigned) [compound 539] yielded an EC50 of 29.3 nM.

With COc1ccc(-c2cc(C(=O)O)ccc2F)cc1C(=O)NC1C2CCC(/C2=C/c2cn(C[Si](C)(C)C)nn2)[C@@H]1C(=O)Nc1ccc(F)c(C(F)(F)F)c1 (stereo partly shown) [Example 325] the EC50 was 4830 nM.

In the case of COc1ccc(-c2cc(C(=O)O)ccc2F)cc1C(=O)N[C@@H]1C2CCC(/C2=C/C2CC2)[C@@H]1C(=O)NC1CCC1 (stereo partly shown) [compound 202], the EC50 is reported as 180 nM.

COc1ccc(C2=NOC3COCC23)cc1C(=O)N[C@H]1[C@@H](C(=O)NCc2ccn(C)n2)[C@H]2CC[C@@H]1/C2=C\C1CC1 (stereo partly shown) [compound 722] showed an EC50 of 4180 nM.

With COc1cc(F)c(F)cc1C(=O)N[C@@H]1C2CCC(/C2=C/c2ccccc2C#N)[C@@H]1C(=O)Nc1ccc(F)c(C(F)(F)F)c1 (stereo partly shown) [compound 68] the EC50 was 3200 nM.

COc1ccc(C2=NOC3COCC23)cc1C(=O)N[C@H]1[C@@H](C(=O)NC2CCC2)[C@H]2CC[C@@H]1/C2=C\C1CC1 (stereo partly shown) [compound 635] showed an EC50 of 191 nM.

In the case of COc1ccc(C2=NO[C@H]3C[C@H](CO)C[C@@H]23)cc1C(=O)N[C@H]1[C@@H](C(=O)N[C@H](C)C2(C)CC2)[C@H]2CC[C@@H]1/C2=C\CCC(F)(F)F [compound 812], the EC50 is reported as 0.8 nM.

O=C(N[C@H]1[C@@H](C(=O)Nc2ccc(F)c(C(F)(F)F)c2)[C@H]2CC[C@@H]1/C2=C\C1CC1)c1cc(C2=NOC3COCC23)ccc1F (single isomer, unassigned) [compound 514] showed an EC50 of 17.2 nM.

COc1ccc(C2=NO[C@H]3CC(CO)C[C@@H]23)cc1C(=O)N[C@H]1[C@@H](C(=O)Nc2ccc(F)c(C(F)(F)F)c2)[C@H]2CC[C@@H]1/C2=C\CC(C)C (stereo partly shown) [compound 822] was tested, and the EC50 was 2.5 nM.
